Experiment in all cases: TGFα-shedding assay-based GPCR screening with chimeric Gα subunit proteins
Holding throughout (assay type): cell-based

Assay [1] concerns the target T1, 348 GPCRs (Homo sapiens, UniProt Q8IZF5).
T1 construct: expressed in transfected cells; host or cells: HEK293A
T1 sequence (Q8IZF5 26-1079): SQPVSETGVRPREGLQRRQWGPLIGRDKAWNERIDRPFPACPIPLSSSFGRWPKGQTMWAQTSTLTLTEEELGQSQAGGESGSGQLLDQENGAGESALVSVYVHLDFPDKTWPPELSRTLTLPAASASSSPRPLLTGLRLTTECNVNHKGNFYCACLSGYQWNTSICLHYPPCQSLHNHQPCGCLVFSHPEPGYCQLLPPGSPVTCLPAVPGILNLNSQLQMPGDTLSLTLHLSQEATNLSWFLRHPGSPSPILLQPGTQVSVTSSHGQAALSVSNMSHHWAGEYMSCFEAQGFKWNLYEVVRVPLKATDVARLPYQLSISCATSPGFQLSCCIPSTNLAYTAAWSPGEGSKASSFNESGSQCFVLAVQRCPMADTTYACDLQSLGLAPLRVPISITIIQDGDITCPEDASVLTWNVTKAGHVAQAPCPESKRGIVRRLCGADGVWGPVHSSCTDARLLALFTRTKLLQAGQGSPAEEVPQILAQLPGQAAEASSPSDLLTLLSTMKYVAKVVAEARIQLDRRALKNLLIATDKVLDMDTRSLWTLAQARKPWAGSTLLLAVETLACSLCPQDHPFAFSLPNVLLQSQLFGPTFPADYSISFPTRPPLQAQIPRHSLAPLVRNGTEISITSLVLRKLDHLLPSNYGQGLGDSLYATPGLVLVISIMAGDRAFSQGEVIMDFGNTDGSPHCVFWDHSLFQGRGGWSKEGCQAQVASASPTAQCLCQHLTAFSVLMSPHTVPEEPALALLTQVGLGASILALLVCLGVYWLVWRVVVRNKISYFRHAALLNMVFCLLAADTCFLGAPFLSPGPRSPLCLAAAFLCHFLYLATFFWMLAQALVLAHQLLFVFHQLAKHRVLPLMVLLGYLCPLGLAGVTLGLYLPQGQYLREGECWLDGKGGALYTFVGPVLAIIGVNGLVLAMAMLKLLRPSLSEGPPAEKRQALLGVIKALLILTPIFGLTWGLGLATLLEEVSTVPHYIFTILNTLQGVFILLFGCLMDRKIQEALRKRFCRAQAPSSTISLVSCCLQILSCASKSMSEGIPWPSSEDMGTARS

Assay [2] concerns the target T2, 348 GPCRs (Homo sapiens, UniProt Q9GZQ6).
T2 construct: expressed in transfected cells; host or cells: HEK293A
Conditions: 10µM, Favipiravir 100μM.

Assay [3] addresses T3, 348 GPCRs (Homo sapiens, UniProt Q9NS66).
T3 construct: expressed in transfected cells; host or cells: HEK293A
Conditions: 10µM, Favipiravir 100μM.

For assay [4], the target named is T4, 348 GPCRs (Homo sapiens, UniProt P32302).
T4 construct: expressed in transfected cells; host or cells: HEK293A
T4 sequence (P32302 1-372): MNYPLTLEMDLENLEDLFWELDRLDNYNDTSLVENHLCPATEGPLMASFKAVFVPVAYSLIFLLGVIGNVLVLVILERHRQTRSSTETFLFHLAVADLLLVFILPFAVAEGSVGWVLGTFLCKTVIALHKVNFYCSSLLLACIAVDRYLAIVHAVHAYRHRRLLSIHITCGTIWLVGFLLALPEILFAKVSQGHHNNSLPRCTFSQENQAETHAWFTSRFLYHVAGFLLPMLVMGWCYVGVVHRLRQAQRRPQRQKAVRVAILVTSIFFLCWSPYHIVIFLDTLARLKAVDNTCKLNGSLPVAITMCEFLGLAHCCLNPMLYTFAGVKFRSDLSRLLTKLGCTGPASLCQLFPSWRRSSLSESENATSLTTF

Assay [5] concerns the target 348 GPCRs (Homo sapiens, UniProt P35372). The following applies: 10µM, Favipiravir 100μM.
Assay [6] has as its target T5, 348 GPCRs (Homo sapiens, UniProt Q8TDV5).
T5 construct: expressed in transfected cells; host or cells: HEK293A
T5 sequence (Q8TDV5 1-335): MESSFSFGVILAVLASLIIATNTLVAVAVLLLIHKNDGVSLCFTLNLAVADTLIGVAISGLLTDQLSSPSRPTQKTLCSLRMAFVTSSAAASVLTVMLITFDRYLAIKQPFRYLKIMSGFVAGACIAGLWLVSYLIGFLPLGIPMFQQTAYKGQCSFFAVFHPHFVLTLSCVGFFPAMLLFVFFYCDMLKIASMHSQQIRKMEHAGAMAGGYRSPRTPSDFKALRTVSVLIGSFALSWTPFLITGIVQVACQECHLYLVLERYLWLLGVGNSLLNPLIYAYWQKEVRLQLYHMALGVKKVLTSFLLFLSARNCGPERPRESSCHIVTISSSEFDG

In assay [7] the target is T6, 348 GPCRs (Homo sapiens, UniProt Q14330).
T6 construct: expressed in transfected cells; host or cells: HEK293A
T6 sequence (Q14330 1-331): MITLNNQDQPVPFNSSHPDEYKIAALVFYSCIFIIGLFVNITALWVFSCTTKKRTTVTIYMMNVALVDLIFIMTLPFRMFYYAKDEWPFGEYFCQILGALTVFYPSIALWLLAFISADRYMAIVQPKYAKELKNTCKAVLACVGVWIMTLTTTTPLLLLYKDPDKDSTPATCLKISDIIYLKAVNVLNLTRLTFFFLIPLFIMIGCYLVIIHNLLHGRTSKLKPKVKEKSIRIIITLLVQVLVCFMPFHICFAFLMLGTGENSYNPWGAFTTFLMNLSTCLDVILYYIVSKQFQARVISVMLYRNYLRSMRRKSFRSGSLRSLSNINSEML
The following applies: GPR18 (G protein-coupled receptor 18); 10µM, Favipiravir 100μM.

Assay [8] has as its target T7, 348 GPCRs (Homo sapiens, UniProt P41594).
T7 construct: expressed in transfected cells; host or cells: HEK293A
Conditions: 10µM, Favipiravir 100μM.

Setting [9] is: GPCR GPR113 (G-protein-coupled receptor 113 (ADGRF3)), read-out: % GPCR activation compared to TPA.
Where [10] appears, read: NPFFR1 (neuropeptide FF receptor 1), read-out: % GPCR activation compared to TPA.
[11] abbreviates: GPR173 (G protein-coupled receptor 173), read-out: % GPCR activation compared to TPA.
Where [12] appears, read: GPCR CXCR5 (C-X-C motif chemokine receptor 5), read-out: % GPCR activation compared to TPA.
The mark [13] stands for this setting: OPRM1, read-out: % GPCR activation compared to TPA, OPRM1 (opioid receptor, mu 1 (MOR1)).
[14] abbreviates: GPCR GPR119 (G protein-coupled receptor 119), read-out: % GPCR activation compared to TPA.
Where [15] appears, read: GRM5 (glutamate receptor, metabotropic 5), read-out: % GPCR activation compared to TPA.
Setting [16] is: read-out: % GPCR activation compared to TPA, GPCR GPR113 (G-protein-coupled receptor 113 (ADGRF3)).
Setting [17] is: read-out: % GPCR activation compared to TPA, NPFFR1 (neuropeptide FF receptor 1).
The mark [18] stands for this setting: read-out: % GPCR activation compared to TPA, GPR173 (G protein-coupled receptor 173).
Where [19] appears, read: read-out: % GPCR activation compared to TPA, GPCR CXCR5 (C-X-C motif chemokine receptor 5).
The mark [20] stands for this setting: read-out: % GPCR activation compared to TPA, GPCR GPR119 (G protein-coupled receptor 119).
Where [21] appears, read: read-out: % GPCR activation compared to TPA, GRM5 (glutamate receptor, metabotropic 5).

Where two headings read alike, the source gives them in different places.

T7 sequence (P41594 21-1212): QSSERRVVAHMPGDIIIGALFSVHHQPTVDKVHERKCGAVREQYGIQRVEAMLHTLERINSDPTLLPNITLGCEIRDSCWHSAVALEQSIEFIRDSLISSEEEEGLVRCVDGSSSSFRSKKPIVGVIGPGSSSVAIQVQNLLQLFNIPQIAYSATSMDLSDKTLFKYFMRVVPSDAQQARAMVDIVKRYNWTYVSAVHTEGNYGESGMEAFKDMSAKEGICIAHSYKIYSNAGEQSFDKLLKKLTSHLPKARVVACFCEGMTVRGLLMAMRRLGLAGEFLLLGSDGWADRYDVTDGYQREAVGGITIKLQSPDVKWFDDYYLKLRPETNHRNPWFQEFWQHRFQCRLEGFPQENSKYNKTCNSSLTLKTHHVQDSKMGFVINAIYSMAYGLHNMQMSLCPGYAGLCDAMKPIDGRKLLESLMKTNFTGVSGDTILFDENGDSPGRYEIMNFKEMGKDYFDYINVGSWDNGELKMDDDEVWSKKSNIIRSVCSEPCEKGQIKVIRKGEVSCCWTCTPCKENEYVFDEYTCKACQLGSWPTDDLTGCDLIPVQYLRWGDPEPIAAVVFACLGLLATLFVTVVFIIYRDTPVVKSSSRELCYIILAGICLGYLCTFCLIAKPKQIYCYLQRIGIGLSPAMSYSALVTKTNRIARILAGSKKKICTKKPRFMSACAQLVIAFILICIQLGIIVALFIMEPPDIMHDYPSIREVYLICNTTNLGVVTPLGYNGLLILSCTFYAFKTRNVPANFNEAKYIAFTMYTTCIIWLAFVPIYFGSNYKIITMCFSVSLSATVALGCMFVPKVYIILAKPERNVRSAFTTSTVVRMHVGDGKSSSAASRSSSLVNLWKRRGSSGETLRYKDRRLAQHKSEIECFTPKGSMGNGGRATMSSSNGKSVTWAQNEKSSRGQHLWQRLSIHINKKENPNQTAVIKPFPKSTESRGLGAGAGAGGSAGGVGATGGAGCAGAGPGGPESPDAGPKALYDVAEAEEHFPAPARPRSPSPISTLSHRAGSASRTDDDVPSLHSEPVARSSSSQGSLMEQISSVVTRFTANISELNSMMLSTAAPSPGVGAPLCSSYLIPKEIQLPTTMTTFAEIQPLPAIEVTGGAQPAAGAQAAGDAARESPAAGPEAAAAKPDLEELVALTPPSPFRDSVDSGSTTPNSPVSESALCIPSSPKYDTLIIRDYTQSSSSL
T3 sequence (Q9NS66 whole entry): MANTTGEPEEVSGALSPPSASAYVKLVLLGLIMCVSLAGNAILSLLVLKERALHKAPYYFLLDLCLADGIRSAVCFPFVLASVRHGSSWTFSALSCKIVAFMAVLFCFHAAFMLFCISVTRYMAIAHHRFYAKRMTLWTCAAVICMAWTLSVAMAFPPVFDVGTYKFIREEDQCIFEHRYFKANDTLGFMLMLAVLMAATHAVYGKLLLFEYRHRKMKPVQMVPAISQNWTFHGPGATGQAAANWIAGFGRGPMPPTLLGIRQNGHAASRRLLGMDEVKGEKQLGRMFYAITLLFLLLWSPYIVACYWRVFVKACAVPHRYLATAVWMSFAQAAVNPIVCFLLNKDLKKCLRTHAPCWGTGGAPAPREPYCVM
T2 sequence (Q9GZQ6 whole entry): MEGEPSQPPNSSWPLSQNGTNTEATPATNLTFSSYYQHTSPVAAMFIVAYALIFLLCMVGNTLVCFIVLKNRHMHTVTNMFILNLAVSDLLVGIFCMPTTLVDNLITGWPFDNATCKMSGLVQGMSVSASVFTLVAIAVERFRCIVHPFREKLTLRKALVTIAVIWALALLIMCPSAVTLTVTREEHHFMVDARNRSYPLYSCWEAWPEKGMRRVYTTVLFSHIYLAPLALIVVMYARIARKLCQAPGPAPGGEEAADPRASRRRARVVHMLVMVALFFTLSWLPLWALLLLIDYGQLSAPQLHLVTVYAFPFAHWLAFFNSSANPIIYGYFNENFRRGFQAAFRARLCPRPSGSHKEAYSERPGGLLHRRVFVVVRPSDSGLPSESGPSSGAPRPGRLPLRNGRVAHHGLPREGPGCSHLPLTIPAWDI
Chain of 348 GPCRs (Homo sapiens, UniProt P35372) (P35372 whole entry): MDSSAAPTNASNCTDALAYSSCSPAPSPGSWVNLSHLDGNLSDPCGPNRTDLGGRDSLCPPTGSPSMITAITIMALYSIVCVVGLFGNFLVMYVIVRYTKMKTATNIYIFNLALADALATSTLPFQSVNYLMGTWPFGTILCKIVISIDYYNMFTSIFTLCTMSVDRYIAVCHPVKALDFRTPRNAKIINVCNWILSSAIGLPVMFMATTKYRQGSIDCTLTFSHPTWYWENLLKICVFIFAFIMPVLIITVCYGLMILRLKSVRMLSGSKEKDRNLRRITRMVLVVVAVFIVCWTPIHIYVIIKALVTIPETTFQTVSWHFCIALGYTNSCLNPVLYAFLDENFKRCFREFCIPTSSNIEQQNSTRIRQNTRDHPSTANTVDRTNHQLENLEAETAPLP

Consider `CC(C)C(=O)OC[C@H]1O[C@@H](n2ccc(NO)nc2=O)[C@H](O)[C@@H]1O` [molnupiravir], for which the activation at 10 µM at 348 GPCRs [1] (setting [9]) is -1.49%; at 348 GPCRs [2] (setting [10]), -0.462%; on 348 GPCRs [3] (setting [11]), -4.49%; at 348 GPCRs [4] (setting [12]), -2%; on 348 GPCRs [5] (setting [13]) it was -3.97%; on 348 GPCRs [6] (setting [14]) it was -26.9%. The activation at 10 µM on 348 GPCRs [8] (setting [15]) was 0.891%. Also, on 348 GPCRs [7], the “% GPCR activation compared to TPA” value was -5.385%.

Regarding `CC(C)OC(=O)[C@H](C)N[P@](=O)(OC[C@H]1O[C@@H](n2ccc(=O)[nH]c2=O)[C@](C)(F)[C@@H]1O)Oc1ccccc1` [sofosbuvir], the activation at 10 µM at 348 GPCRs [1] (setting [16]) is 0.111%; at 348 GPCRs [2] (setting [17]), -1.9%; on 348 GPCRs [3] (setting [18]) it was -0.581%; at 348 GPCRs [4] (setting [19]), -0.968%; at 348 GPCRs [5] (setting [13]), -0.878%; at 348 GPCRs [6] (setting [20]) it was -6.04%. In addition, on 348 GPCRs [8] (setting [21]), the activation at 10 µM was determined as 3.55%. Besides, the “% GPCR activation compared to TPA” value on 348 GPCRs [7] was -3.042%.

As for `N#C[C@@]1(c2ccc3c(N)ncnn23)O[C@H](CO)[C@@H](O)[C@H]1O` [GS441524], the activation at 10 µM is -1.08% at 348 GPCRs [1] (setting [9]); 1.07% at 348 GPCRs [2] (setting [10]); 0.119% at 348 GPCRs [3] (setting [11]); -2.05% on 348 GPCRs [4] (setting [12]); -2.75% at 348 GPCRs [5] (setting [13]); 5.33% at 348 GPCRs [6] (setting [14]). The activation at 10 µM at 348 GPCRs [8] (setting [15]) was found to be 1.65%. In addition, at 348 GPCRs [7], the “% GPCR activation compared to TPA” value worked out at 2.081%.

Regarding `NC(=O)c1nc(F)cnc1O` [favipiravir, 6-fluoro-3-hydroxy-2-pyrazinecarboxamide], the activation at 100 µM at 348 GPCRs [1] (GPCR GPR113 (G-protein-coupled receptor 113 (ADGRF3)), 100μM, read-out: % GPCR activation compared to TPA) is -1.12%; at 348 GPCRs [4] (GPCR CXCR5 (C-X-C motif chemokine receptor 5), 100μM, read-out: % GPCR activation compared to TPA), -2.18%; at 348 GPCRs [6] (GPCR GPR119 (G protein-coupled receptor 119), 100μM, read-out: % GPCR activation compared to TPA), 3.67%. For the same molecule, the activation at 10 µM at 348 GPCRs [2] (setting [10]) is -3.31%; at 348 GPCRs [3] (setting [11]), 0.0591%; at 348 GPCRs [5] (OPRM1, OPRM1 (opioid receptor, mu 1 (MOR1)), read-out: % GPCR activation compared to TPA), -1.89%; at 348 GPCRs [8] (setting [15]), 0.818%. Moreover, the “% GPCR activation compared to TPA” value on 348 GPCRs [7] was -1%.

Consider `CCC(CC)COC(=O)[C@H](C)N[P@](=O)(OC[C@H]1O[C@@](C#N)(c2ccc3c(N)ncnn23)[C@H](O)[C@@H]1O)Oc1ccccc1` [remdesivir], for which the activation at 10 µM on 348 GPCRs [1] (setting [16]) is 0.66%; on 348 GPCRs [2] (setting [17]) it was -0.49%; at 348 GPCRs [3] (setting [18]), 1.49%; on 348 GPCRs [4] (setting [19]), -0.166%; at 348 GPCRs [5] (setting [13]) it was -2.36%; on 348 GPCRs [6] (setting [20]), 7.14%. Further, the activation at 10 µM at 348 GPCRs [8] (setting [21]) is 2.34%. On 348 GPCRs [7], the “% GPCR activation compared to TPA” value is on record as 1.118%.

For the origin of these results see PMC10175918 (Communications Biology, 2023).
